From paper PMC5454942, “The Potential of Triterpenoids from Loquat Leaves (Eriobotrya japonica) for Prevention and Treatment of Skin Disorder” (International Journal of Molecular Sciences, 2017)
In brackets after ≈: the same amount, converted by molar mass.

Experiments:
B16 melanoma cells [1] = assay: Anti-melanogenesis assay (melanin content); assay type: cell-based, mouse; settings: for Inhibition rate (100% − melanin synthesis): B16 cells; for IC50 melanin / IC50: B16 melanoma cells; for IC50: read-out: IC50 (melanin synthesis)
Description: (§1) This assay was performed as described by Arung et al.. The mouse melanoma cell line B16 was obtained from the Riken Bioresource Center Cell Bank (Tsukuba, Japan). The B16 melanoma cells were maintained in Eagle’s Minimal Essential Medium (EMEM, Nissui Chemical, Tokyo) supplemented with 10% (v/v) fetal bovine serum (FBS; Gibco, Carlsbad, CA, USA) and 0.09 mg/mL theophylline (Sigma-Aldrich, St. Louis, MO, USA). […] After 24 h, test samples were dissolved in DMSO (<0.2% per well) and sample solution were added to each well. Arbutin (Tokyo Kasei Kogyo, Tokyo) was used as a positive control. The cells were incubated for an additional 48 h, and then the medium was replaced with fresh medium containing each sample again. After 24 h, the melanin content and the cell viability were measured using a microplate reader (BioTek-ELX800, BioTek Instruments, Winooski, VT, USA) at 405 nm and 570 nm, respectively. Cell viability was measured using the MTT (3-(4,5-dimethylthiazol-2-yl)-2,5-diphenyltetrazolium bromide) method.

B16 melanoma cells [2] = assay: Cell viability of B16 melanoma cells (MTT); settings: for Inhibition rate (100% − cell viability): B16 cells; for CC50 cell viability / CC50: B16 melanoma cells, MTT; for CC50: read-out: CC50 (cell viability)
Description: as §1

Propionibacterium acnes = assay: Anti-bacterial assay (growth inhibition, MIC/MBC by broth microdilution); assay type: cell-based; settings: for Inhibition Rate (P. acnes growth): concentration 100 μg/mL; for activity against P. acnes (in words): at their maximum solubility
Description: The antibacterial assay was based mostly on the methods described by Tanaka et al. with slight modification. Propionibacterium acne (NBRC 107605) was used for the antibacterial assay. A single colony of the test strain was taken and 5 mL of Gifu anaerobic medium (GAM) broth (Nissui, Tokyo) was added to it. This culture was incubated at 37 °C for 30 h. It was then added to the bacterial suspension to prepare a bacterial concentration at 10^5 CFU/mL. The bacterial solution was used for the subsequent antibacterial assay. Each compound was dissolved in DMSO, and benzalkonium chloride (Wako) was used as a positive control. The plate was incubated at 37 °C for 30 h. Finally, bacterial growth was measured by a microplate reader at 630 nm. The MIC and MBC were evaluated by the standard broth microdilution method.

RBL-2H3 cells [3] = assay: Cell viability of RBL-2H3 cells (parallel MTT); assay type: cell-based, rat; settings: 25 μg/ml, RBL-2H3 cells
Description: (§2) The anti-allergy assay was based mostly on the methods described by Zhu et al. and Yun et al. with slight modification. Rat basophilic leukemia (RBL-2H3) cells were obtained from the Riken Bio-resource Center Cell Bank (Tsukuba, Japan). RBL-2H3 cells were incubated in EMEM medium containing 10% FBS and 1% antibiotics–antimycotics at 37 °C. The cells were seeded on a 96-well plate (2 × 10^5 cells/well). After 24 h of incubation, the medium was supplemented with 0.5 μg/mL anti-DNP (dinitrophenol) mouse immunoglobulin E (IgE) (Sigma-Aldrich). After an additional 24 h of incubation, the medium was replaced with 100 μL of Tyrode buffer. The sample dissolved in DMSO (<0.5% per well) was added, and the cell plate was incubated again for 30 min, then replaced with 100 μL of tyrode buffer containing 50 μg/mL DNP-bovine serum albumin (BSA) (Invitrogen, Carlsbad, CA, USA). After 1 h of incubation, 50 μL of the supernatant was collected from each well and mixed with 50 μL of substrate solution (p-nitrophenyl-N-acetyl-β-glucosaminide, 2 mM; Sigma-Aldrich) in a new 96-well plate. The mixture was incubated at room temperature on a shaker for 3 h. Finally, 100 μL of stop solution was added, and the absorbance was read at 405 nm. A parallel MTT experiment was performed to measure the cell viability. The MTT experiment was done exactly as described.

NHDF cells = assay: Skin type I collagen synthesis promoting assay (ELISA, with MTT); assay type: cell-based, human; settings: fold of control
Description: The assay for measuring the promotion of skin collagen synthesis was described by Kishikawa et al.. Adult NHDF cells (Lonza, Tokyo) were routinely maintained in 10% FBS and 1% antibiotic-antimycotic (Invitrogen) in Dulbecco’s modified Eagle’s medium (DMEM, Wako). After growing to confluence, cells at a density of 5 × 10^3 cells/well were seeded on 96-well plates for 24 h before the treatment. The medium was replaced with a mixture of 1 μL of sample solution (DMSO < 0.5% per well) and 99 μL of DMEM supplemented with 0.5% FBS. After 72 h of cultivation, the amount of collagen in the medium was measured using a human type I collagen enzyme-linked immunosorbent assay (ELISA) kit (ACEL, Kanagawa, Japan). The amount of collagen production was calculated using a standard curve prepared by measurement by the same ELISA. The cells remaining in the 96-well plate were subjected to an MTT assay. Ascorbic acid (100 μM, Wako) was used as a positive control.

RBL-2H3 cells [4] = assay: β-hexosaminidase release from IgE-stimulated RBL-2H3 mast cells; assay type: cell-based, rat; settings: 25 μg/mL
Description: as §2

SMILES	Inhibition rate (100% − melanin synthesis) (B16 melanoma cells [1]; 1 μg/ml) [%]	Inhibition rate (100% − melanin synthesis) (B16 melanoma cells [1]; 2.5 μg/ml) [%]	Inhibition rate (100% − melanin synthesis) (B16 melanoma cells [1]; 5 μg/ml) [%]	Inhibition rate (100% − melanin synthesis) (B16 melanoma cells [1]; 10 μg/ml) [%]	IC50 melanin (B16 melanoma cells [1]) [µg/mL]	IC50 (B16 melanoma cells [1]) [µM]	Inhibition rate (100% − cell viability) (B16 melanoma cells [2]; 1 μg/ml) [%]	Inhibition rate (100% − cell viability) (B16 melanoma cells [2]; 2.5 μg/ml) [%]	Inhibition rate (100% − cell viability) (B16 melanoma cells [2]; 5 μg/ml) [%]	Inhibition rate (100% − cell viability) (B16 melanoma cells [2]; 10 μg/ml) [%]	CC50 cell viability (B16 melanoma cells [2]) [µg/mL]	CC50 (B16 melanoma cells [2]) [µM]	Inhibition Rate (P. acnes growth) (Propionibacterium acnes)	Cell viability (RBL-2H3 cells [3]) [%]	CP/CV value (collagen production %/cell viability %) (NHDF cells; 1 μg/mL)	CP/CV value (collagen production %/cell viability %) (NHDF cells; 5 μg/mL)	CP/CV value (collagen production %/cell viability %) (NHDF cells; 10 μg/mL)	activity against P. acnes (in words) (Propionibacterium acnes)	Inhibition Rate (β-hexosaminidase release) (RBL-2H3 cells [4]) [%]	Inhibition rate (100% − cell viability) (B16 melanoma cells [2]; 20 μg/ml) [%]	also measured
C[C@H]1[C@H](C)CC[C@]2(C(=O)O)CC[C@]3(C)C(=CC[C@@H]4[C@@]5(C)CCC(=O)C(C)(C)[C@@H]5CC[C@]43C)[C@H]12 [Compound 13, 3-oxours-12-en-28-oic acid]	41.0 ± 2.1	39.7 ± 0.6	45.5 ± 2.7	52.9 ± 0.6	8.1 (≈ 17.8 µM)	18	39.1 ± 2.6	42.7 ± 2.1	51.5 ± 3.7	80.3 ± 3.0	4.0 (≈ 8.8 µM)	8.9	– (no inhibition)	85.6 ± 4.2	1.2	1.2	1.4				Inhibition rate (100% − melanin synthesis) (B16 melanoma cells [1]; 0.5 μg/ml): 37.4 ± 1.1%
C[C@@H]1CC[C@]2(C(=O)O)CC[C@]3(C)C(=CC[C@@H]4[C@@]5(C)CCC(=O)C(C)(C)[C@@H]5[C@H](O)C[C@]43C)[C@@H]2[C@]1(C)O [Compound 14, 6β,19-dihydroxyurs-12-en-3-oxo-28-oic acid]	6.9 ± 1.8	15.8 ± 1.8	39.5 ± 3.1	67.3 ± 1.4	7.2 (≈ 14.8 µM)	14.8	2.5 ± 8.3	1.2 ± 9.7	44.1 ± 0.4	69.1 ± 10.0	5.3 (≈ 10.9 µM)	10.9	87.6 ± 7.4%	66.8 ±11.1	1.2	1.4	1.1	active			
COC(=O)[C@]12CCC(C)(C)C[C@@H]1C1=CC[C@@H]3[C@@]4(C)C[C@@H](O)[C@H](O)C(C)(C)C4CC[C@@]3(C)[C@]1(C)CC2 (stereo partly drawn) [Compound 5, Methyl maslinate]	0.0 ± 4.4	1.6 ± 0.6	44.8 ± 4.3	68.2 ± 0.6	6.2 (≈ 12.7 µM)	12.8	4.7 ± 8.1	1.3 ± 5.2	12.1 ± 8.6	75.9 ± 0.5	8.4 (≈ 17.3 µM)	17.5	– (no inhibition)	105.8 ± 1.1		1.2			8.5 ± 9.5		
C[C@@H]1CC[C@]2(C(=O)O)CC[C@]3(C)C(=CC[C@@H]4[C@@]5(C)C[C@@H](O)C(=O)C(C)(C)[C@@H]5CC[C@]43C)[C@@H]2[C@]1(C)O [Compound 15, 2α, 19α-dihydroxy-3-oxo-12-ursen-28-oic acid]				24.2 ± 1.0	> 20.0	> 42.3			5.6 ± 4.6	11.4 ± 3.9	> 20.0	> 42.3	– (no inhibition)	102.1 ± 2.2		1.1			0.9 ± 0.0	26.4 ± 1.4	
C[C@@H]1CC[C@]2(C(=O)O)CC[C@]3(C)C(=CC[C@@H]4[C@@]5(C)C[C@@H](O)[C@H](O)C(C)(C)[C@@H]5CC[C@]43C)[C@@H]2[C@]1(C)O [Compound 11, tormentic acid]	0.0± 6.1	11.3 ± 3.4	34.8 ± 4.5	51.3 ± 0.9	9.0 (≈ 18.4 µM)	18.5	12.0 ± 12.8	13.7 ± 10.7	8.7 ± 12.1	52.4 ± 8.6	11.4 (≈ 23.3 µM)	23.3	102.8 ± 2.1%	62.6 ± 1.1		1.3		active		85.8 ± 1.6	Inhibition rate (100% − melanin synthesis) (B16 melanoma cells [1]; 20 μg/ml): 73.4 ± 8.0%; MBC (Propionibacterium acnes; P. acnes, broth microdilution): 200 µg/mL (≈ 409 µM); MIC (Propionibacterium acnes; P. acnes, broth microdilution): 100 µg/mL (≈ 205 µM)
